In ChEMBL document CHEMBL4507268 (2021):

What was measured:
Details in all cases: Compound concentration 1.0 uM
[1] = biological target: T1, Mitogen-activated protein kinase kinase kinase 5 (Homo sapiens) (UniProt Q99683)
T1 sequence (whole entry): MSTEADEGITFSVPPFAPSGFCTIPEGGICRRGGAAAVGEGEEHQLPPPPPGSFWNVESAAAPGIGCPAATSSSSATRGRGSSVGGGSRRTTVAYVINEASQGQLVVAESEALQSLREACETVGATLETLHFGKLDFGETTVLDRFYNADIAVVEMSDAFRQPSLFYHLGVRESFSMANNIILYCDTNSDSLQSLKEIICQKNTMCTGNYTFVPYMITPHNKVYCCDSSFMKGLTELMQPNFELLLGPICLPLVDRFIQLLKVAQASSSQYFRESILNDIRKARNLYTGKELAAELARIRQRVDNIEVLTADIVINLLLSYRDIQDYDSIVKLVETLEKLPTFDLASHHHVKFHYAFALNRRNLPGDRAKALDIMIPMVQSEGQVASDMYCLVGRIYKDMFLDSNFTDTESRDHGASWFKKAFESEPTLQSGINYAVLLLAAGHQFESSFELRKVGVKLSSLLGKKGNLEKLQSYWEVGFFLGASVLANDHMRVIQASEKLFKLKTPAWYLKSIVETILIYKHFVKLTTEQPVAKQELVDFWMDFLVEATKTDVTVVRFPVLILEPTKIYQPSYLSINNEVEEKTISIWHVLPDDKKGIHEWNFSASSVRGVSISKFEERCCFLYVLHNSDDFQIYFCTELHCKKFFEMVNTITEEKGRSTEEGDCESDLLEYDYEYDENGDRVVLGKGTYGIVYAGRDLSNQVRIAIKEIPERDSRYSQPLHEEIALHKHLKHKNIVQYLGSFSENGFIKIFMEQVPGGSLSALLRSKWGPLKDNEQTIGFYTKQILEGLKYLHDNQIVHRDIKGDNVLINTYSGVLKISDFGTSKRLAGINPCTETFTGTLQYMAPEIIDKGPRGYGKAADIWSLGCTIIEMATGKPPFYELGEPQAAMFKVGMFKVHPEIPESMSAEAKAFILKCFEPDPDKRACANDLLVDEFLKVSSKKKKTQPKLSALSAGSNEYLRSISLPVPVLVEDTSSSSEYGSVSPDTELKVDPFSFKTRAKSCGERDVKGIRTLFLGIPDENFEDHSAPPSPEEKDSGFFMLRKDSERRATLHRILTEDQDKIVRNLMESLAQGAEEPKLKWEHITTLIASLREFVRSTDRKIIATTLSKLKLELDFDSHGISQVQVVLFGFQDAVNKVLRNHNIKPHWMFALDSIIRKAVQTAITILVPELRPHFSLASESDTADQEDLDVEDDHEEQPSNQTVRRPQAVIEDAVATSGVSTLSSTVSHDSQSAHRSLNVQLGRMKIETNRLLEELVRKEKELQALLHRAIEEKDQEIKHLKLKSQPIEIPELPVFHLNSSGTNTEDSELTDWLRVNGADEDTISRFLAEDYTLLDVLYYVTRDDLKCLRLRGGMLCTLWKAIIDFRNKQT

[2] = biological target: CDK7/Cyclin H/MNAT1 (Homo sapiens) (UniProt P51946+P50613+P51948)
[3] = biological target: Dual specificity protein kinase CLK2 (Homo sapiens) (UniProt P49760)
Sequence of Dual specificity protein kinase CLK2 (Homo sapiens) (P49760 whole entry, looked up): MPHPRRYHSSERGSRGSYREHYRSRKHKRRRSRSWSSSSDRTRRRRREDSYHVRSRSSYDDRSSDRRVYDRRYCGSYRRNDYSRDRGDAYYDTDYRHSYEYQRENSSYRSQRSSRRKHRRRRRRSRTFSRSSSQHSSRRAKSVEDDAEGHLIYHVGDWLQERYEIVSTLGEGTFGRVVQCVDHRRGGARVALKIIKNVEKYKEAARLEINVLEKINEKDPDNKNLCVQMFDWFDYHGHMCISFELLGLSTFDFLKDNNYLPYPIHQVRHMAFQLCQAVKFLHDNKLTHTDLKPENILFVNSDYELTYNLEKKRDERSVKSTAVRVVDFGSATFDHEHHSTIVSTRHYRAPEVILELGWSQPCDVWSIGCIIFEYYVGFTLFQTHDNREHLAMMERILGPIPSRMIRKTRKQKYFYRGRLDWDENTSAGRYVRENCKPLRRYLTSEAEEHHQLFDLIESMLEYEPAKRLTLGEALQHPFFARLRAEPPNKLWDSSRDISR

[4] = biological target: T2, Ephrin type-A receptor 1 (Homo sapiens) (UniProt P21709)
T2 sequence (whole entry): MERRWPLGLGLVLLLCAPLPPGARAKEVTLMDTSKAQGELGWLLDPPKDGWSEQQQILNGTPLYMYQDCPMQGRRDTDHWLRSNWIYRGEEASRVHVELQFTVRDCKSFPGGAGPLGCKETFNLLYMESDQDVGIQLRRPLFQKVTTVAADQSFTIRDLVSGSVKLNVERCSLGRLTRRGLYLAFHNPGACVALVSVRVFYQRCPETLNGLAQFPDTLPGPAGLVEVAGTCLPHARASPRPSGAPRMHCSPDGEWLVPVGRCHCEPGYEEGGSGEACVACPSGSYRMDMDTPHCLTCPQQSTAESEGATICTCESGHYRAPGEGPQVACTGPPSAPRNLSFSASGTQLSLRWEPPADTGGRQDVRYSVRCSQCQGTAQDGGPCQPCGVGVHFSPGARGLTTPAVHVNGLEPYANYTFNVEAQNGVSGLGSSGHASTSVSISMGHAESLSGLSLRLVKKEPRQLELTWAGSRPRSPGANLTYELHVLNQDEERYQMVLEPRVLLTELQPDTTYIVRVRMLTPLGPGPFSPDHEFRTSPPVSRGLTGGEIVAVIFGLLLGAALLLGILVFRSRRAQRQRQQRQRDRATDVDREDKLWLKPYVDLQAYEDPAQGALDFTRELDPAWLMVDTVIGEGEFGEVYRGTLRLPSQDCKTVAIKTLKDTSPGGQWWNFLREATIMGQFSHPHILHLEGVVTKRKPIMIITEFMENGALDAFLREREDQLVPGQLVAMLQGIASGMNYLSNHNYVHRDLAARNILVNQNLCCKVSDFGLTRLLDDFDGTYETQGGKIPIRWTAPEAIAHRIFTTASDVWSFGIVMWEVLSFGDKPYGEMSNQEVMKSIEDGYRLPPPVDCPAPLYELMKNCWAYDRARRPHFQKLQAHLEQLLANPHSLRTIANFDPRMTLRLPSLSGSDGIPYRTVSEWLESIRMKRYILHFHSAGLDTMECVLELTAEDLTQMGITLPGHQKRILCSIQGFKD

[5] = biological target: Eukaryotic translation initiation factor 2-alpha kinase 3 (Homo sapiens) (UniProt Q9NZJ5)
Sequence of Eukaryotic translation initiation factor 2-alpha kinase 3 (Homo sapiens) (Q9NZJ5 whole entry): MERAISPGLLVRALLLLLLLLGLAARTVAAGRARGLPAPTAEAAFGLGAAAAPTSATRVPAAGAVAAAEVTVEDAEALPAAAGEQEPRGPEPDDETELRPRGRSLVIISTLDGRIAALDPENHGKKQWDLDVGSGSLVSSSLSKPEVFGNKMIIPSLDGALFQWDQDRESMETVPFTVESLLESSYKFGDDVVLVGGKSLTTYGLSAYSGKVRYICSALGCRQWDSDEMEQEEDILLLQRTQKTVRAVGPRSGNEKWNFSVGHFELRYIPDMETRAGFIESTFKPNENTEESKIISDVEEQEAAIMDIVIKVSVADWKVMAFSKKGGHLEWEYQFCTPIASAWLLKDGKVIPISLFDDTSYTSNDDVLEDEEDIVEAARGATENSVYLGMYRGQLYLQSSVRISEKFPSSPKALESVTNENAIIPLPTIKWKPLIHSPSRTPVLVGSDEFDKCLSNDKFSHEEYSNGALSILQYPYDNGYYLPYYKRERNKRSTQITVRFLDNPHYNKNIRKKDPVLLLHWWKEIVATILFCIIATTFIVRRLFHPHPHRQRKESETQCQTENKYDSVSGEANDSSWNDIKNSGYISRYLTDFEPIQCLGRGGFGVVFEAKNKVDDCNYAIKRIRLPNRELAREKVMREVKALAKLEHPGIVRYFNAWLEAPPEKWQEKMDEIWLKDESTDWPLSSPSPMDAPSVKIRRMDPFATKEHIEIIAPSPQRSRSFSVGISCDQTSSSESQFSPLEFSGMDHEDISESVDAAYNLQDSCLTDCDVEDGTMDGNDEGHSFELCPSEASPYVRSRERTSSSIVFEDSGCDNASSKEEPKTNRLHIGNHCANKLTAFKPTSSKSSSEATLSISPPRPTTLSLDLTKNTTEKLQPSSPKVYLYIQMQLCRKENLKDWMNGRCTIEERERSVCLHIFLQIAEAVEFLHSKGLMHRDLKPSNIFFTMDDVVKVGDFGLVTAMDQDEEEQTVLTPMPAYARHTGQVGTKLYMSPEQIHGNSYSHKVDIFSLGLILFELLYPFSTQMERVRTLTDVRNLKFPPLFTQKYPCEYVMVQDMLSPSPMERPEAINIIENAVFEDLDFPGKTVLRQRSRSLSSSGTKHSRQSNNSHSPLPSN

[6] = biological target: Serine/threonine-protein kinase VRK1 (Homo sapiens) (UniProt Q99986)
Sequence of Serine/threonine-protein kinase VRK1 (Homo sapiens) (Q99986 whole entry): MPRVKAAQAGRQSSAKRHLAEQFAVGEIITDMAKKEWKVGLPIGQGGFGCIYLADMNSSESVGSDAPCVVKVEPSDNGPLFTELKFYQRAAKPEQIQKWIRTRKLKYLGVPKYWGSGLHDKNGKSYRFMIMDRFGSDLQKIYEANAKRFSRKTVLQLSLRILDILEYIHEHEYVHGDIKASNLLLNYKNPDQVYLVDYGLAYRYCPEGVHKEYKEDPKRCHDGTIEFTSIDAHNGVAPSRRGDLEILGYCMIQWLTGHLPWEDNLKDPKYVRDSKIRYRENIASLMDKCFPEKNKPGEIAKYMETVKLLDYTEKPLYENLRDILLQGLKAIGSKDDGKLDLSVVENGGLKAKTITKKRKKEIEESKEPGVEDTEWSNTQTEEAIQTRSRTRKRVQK

[7] = biological target: Phosphatidylinositol 4-phosphate 5-kinase type-1 gamma (Homo sapiens) (UniProt O60331)
Sequence of Phosphatidylinositol 4-phosphate 5-kinase type-1 gamma (Homo sapiens) (O60331 whole entry): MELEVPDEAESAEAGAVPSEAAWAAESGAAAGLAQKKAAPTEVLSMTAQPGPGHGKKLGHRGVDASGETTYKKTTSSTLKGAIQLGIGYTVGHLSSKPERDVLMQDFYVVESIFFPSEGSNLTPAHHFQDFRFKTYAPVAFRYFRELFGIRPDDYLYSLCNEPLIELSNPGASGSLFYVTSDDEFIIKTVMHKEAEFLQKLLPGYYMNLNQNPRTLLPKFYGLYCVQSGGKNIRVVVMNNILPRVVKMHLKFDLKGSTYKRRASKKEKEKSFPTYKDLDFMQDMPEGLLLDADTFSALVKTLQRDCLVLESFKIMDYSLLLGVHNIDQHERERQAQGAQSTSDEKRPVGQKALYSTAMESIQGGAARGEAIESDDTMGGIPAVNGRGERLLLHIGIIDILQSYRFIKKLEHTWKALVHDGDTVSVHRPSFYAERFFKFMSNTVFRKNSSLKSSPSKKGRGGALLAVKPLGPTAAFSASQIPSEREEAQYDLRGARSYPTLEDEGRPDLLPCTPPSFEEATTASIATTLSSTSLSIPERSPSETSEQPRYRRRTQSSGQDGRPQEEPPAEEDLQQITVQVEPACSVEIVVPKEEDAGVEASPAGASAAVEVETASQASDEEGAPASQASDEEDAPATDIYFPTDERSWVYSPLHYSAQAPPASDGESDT

Measured: % residual kinase activity

CN1CCN(c2cnc3c(C4CCN(C(=O)c5ccc(OC(F)(F)F)cc5N)CC4)ncnc3c2)CC1 [BAY-885]
inactive: [1] 99% | [2] 99% | [3] 109% | [4] 106% | [5] 100% | [6] 100% | [7] 93%
